Tested on: human PBMC
Assay: LPS stimulated cytokine secretion in human PBMC pretreated with compounds (Phase 2)
Type: cell-based
Set-up: TNF-α concentration in supernatant / IL-1β concentration in supernatant / IL-6 concentration in supernatant / IL-2 concentration in supernatant / IFN-g concentration in supernatant: unit of the concentration uncertain
Details: for IL-2 concentration in supernatant / TNF-α concentration in supernatant / IL-1β concentration in supernatant / IFN-g concentration in supernatant / IL-6 concentration in supernatant: 8-hour 1 ng/mL LPS stimulation; for IL-2 concentration in supernatant: LLOQ = 1.698 pg/mL; for TNF-α concentration in supernatant: LLOQ = 2.018 pg/mL; for IL-1β concentration in supernatant: LLOQ = 2.299 pg/mL; for IFN-g concentration in supernatant: LLOQ = 2.792 pg/mL; for IL-6 concentration in supernatant: LLOQ = 0.831; for Effect on LPS stimulated cytokine secretion: any conditions tested
Source text: Results are represented as fold-change relative to LPS treatment alone for each cytokine calculated by means from 3 separate donors.
RPMI medium alone, RPMI supplemented with 0.2% DMSO (to mimic treatment conditions) or LPS stimulation alone were used as controls.
Except for the two negative control conditions, all 3 donors responded to all experimental conditions tested with the secretion of TNF-α, IL-1β, and IL-6 albeit with a high degree of variability.

## O=c1c(O)c(-c2cc(O)c(O)c(O)c2)oc2cc(O)cc(O)c12 [Myricetin]
Donor 1, 10 (unit uncertain)
  IL-2 concentration in supernatant: <LLOQ
  TNF-α concentration in supernatant: 1496.9 pg/mL
  IL-1β concentration in supernatant: 3079.47 pg/mL
  IFN-g concentration in supernatant: <LLOQ
  IL-6 concentration in supernatant: 884.11 pg/mL
Donor 1, 100 (unit uncertain)
  IL-2 concentration in supernatant: <LLOQ
  TNF-α concentration in supernatant: 1251.59 pg/mL
  IL-1β concentration in supernatant: 2858.12 pg/mL
  IFN-g concentration in supernatant: <LLOQ
  IL-6 concentration in supernatant: 767.01 pg/mL
Donor 1, 200 (unit uncertain)
  IL-2 concentration in supernatant: <LLOQ
  TNF-α concentration in supernatant: 1811.82 pg/mL
  IL-1β concentration in supernatant: 2923.92 pg/mL
  IFN-g concentration in supernatant: <LLOQ
  IL-6 concentration in supernatant: 781.22 pg/mL
Donor 2, 10 (unit uncertain)
  IL-2 concentration in supernatant: <LLOQ
  TNF-α concentration in supernatant: 1006.28 pg/mL
  IL-1β concentration in supernatant: 2517.48 pg/mL
  IFN-g concentration in supernatant: <LLOQ
  IL-6 concentration in supernatant: 685.49 pg/mL
Donor 2, 100 (unit uncertain)
  IL-2 concentration in supernatant: <LLOQ
  TNF-α concentration in supernatant: 1597.26 pg/mL
  IL-1β concentration in supernatant: 3046.49 pg/mL
  IFN-g concentration in supernatant: <LLOQ
  IL-6 concentration in supernatant: 833.84 pg/mL
Donor 2, 200 (unit uncertain)
  IL-2 concentration in supernatant: <LLOQ
  TNF-α concentration in supernatant: 1021.2 pg/mL
  IL-1β concentration in supernatant: 2501.45 pg/mL
  IFN-g concentration in supernatant: <LLOQ
  IL-6 concentration in supernatant: 649.98 pg/mL
Donor 3, 10 (unit uncertain)
  IL-2 concentration in supernatant: <LLOQ
  TNF-α concentration in supernatant: 4121.89 pg/mL
  IL-1β concentration in supernatant: 3880.95 pg/mL
  IFN-g concentration in supernatant: <LLOQ
  IL-6 concentration in supernatant: 685.49 pg/mL
Donor 3, 100 (unit uncertain)
  IL-2 concentration in supernatant: <LLOQ
  TNF-α concentration in supernatant: 3225.93 pg/mL
  IL-1β concentration in supernatant: 3293.89 pg/mL
  IFN-g concentration in supernatant: <LLOQ
  IL-6 concentration in supernatant: 833.84 pg/mL
Donor 3, 200 (unit uncertain)
  IL-2 concentration in supernatant: <LLOQ
  TNF-α concentration in supernatant: 2528.98 pg/mL
  IL-1β concentration in supernatant: 2756.81 pg/mL
  IFN-g concentration in supernatant: <LLOQ
  IL-6 concentration in supernatant: 649.98 pg/mL
  Effect on LPS stimulated cytokine secretion: did not appear to have any effect
Listed as myricetin
  Effect on LPS stimulated cytokine secretion: no effect
